Data from US9637488B2, “Heterocyclic compounds as inhibitors of class I PI3KS” (priority 2015, dated 2017).

Legend:
Type in all cases: biochemical
PI3Kδ (p110δ/p85α) = PI3Kδ (p110δ/p85α) (Homo sapiens (Human), UniProt O00329); experiment: cell-free PI3K HTRF assay, PI3Kδ; details: for IC50: 10-dose IC50 mode, 3-fold serial dilution starting at 1 μM, ATP 10 μM, read-out: IC50 value for the inhibition of PI3Kδ; for potency or inhibition against PI3Kδ (in words): qualitative statement
PI3Kβ (p110β/p85α) = PI3Kβ (p110β/p85α) (Homo sapiens (Human), UniProt P42338); experiment: cell-free PI3K HTRF assay, PI3Kβ; details: ratio of IC50 against PI3Kβ related to PI3Kδ; 10-dose, 3-fold serial dilution starting at 10 μM
Sequence of PI3Kβ (p110β/p85α) (P42338 whole entry): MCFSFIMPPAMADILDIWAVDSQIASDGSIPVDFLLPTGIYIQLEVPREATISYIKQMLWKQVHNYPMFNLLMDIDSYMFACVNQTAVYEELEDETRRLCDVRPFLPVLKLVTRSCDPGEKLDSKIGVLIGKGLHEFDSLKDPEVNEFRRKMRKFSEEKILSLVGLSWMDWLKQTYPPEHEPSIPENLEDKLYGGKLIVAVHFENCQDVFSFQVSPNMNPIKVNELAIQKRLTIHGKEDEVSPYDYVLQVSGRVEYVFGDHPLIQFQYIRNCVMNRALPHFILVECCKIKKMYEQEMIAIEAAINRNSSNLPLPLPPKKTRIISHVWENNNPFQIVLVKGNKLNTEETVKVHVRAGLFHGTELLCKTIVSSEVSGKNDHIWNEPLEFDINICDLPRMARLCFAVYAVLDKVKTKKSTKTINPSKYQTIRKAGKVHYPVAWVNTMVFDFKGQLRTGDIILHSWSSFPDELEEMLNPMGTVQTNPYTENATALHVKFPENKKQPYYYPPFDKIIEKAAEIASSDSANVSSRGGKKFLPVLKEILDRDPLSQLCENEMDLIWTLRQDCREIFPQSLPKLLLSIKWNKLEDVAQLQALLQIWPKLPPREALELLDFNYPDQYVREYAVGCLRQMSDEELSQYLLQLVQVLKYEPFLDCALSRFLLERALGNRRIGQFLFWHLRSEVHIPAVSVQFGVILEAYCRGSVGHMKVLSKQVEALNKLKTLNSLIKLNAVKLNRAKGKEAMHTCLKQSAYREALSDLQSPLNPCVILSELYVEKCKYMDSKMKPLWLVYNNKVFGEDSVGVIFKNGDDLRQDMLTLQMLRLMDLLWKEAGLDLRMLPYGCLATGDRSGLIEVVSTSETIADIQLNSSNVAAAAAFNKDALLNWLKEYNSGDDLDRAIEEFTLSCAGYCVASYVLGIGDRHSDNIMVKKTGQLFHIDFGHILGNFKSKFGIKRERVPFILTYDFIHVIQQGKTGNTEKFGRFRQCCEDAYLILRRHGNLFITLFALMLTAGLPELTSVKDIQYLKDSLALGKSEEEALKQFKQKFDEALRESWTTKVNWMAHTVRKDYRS
Sequence of PI3Kβ (p110β/p85α) (P27986 whole entry partner): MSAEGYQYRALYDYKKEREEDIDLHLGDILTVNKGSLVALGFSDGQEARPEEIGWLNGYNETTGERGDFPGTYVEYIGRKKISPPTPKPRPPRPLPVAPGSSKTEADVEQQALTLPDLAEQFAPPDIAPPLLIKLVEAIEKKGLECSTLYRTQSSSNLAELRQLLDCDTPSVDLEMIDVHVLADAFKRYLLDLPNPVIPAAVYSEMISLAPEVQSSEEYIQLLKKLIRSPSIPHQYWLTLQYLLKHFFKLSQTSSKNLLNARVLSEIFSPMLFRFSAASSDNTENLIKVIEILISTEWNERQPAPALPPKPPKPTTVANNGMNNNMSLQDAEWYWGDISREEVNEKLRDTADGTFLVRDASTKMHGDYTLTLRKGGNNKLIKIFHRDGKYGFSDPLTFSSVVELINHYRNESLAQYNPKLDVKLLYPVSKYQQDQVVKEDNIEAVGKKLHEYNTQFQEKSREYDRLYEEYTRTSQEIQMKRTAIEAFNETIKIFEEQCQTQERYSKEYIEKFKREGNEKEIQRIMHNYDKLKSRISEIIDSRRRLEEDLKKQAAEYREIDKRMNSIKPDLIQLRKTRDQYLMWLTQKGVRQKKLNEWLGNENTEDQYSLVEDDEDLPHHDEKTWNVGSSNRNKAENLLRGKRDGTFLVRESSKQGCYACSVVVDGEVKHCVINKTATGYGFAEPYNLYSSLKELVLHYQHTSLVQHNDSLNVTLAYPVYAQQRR
Method: (§1) Exemplary compounds of the invention were tested for inhibitory activity and potency against class I PI3Ks (p110α/p85α, p110β/p85α, p110δ/p85α and p110γ) using a cell-free based PI3K HTRF assay. This assay was used to detect the formation of the product 3,4,5-inositol triphosphate molecule (PIP3) by displacement of biotin-PIP3 from an energy transfer complex consisting of Europium labeled anti-GST monoclonal antibody, a GST-tagged pleckstrin homology (PH) domain, biotinylated PIP3 and Streptavidin-Allophycocyanin (APC). Excitation of Europium in the complex results in an energy transfer to the APC and a fluorescent emission at 665 nm. The PIP3 product formed by human PI 3-Kinase activity displaces biotin-PIP3 from the complex resulting in a loss of energy transfer and thus a decrease in signal.
(§2) Human class I PI3K isoforms were co-expressed in a Baculovirus infected cell expression system. The PI3K isoforms were assayed in the presence of HEPES (50 mM, pH 7.0), NaN3 (0.02%), BSA (0.01%), orthovanadate (0.1 mM), and DMSO (1%). The exemplary compounds dissolved in DMSO were delivered into the kinase reaction mixture by Acoustic technology (Echo550; nanolitter range), and were pre-incubated for 10 min at room temperature before adding ATP (10 μM) to initiate the reaction. After 30 min at 30° C., the reactions were quenched with a stop solution, incubated overnight with a detection mixture before measuring HTRF (Ex: 320 nm; Em: 615/665 nm). The emission ratio is converted into μM PIP3 production based on PIP3 standard curves, and the nonlinear regression to obtain the standard curve and IC50 values are performed using Graphpad Prism software.
(§3) The assays were performed at Reaction Biology Corporation, One Great Valley Parkway, Suite 2, Malvern, Pa. 19355, USA.
(§4) Exemplary compounds of the invention selected were further tested their inhibitory activity or potency against PI3Kα, PI3Kβ, and PI3Kγ in 10-dose IC50 mode with 3-fold serial dilution starting at 10 μM. […] Table 5 below illustrates the selectivity of the exemplary compounds using the ratios of the IC50 values of the compounds against PI3Kα, PI3Kβ, and PI3Kγ related to PI3Kδ. […] Such unexpected selectivity against PI3Kδ and/or PI3Kγ is attributed to the unusual overall shape of the molecules of formula (I) and (II), and the optimal selection of R1, R2, R3, R4, X, and Y defined in formula (I) and (II) in order to bind favorably in the ATP-binding pocket of PI3Kδ and/or PI3Kγ versus other class I isozymes.

PI3Kγ (p110γ) = PI3Kγ (p110γ) (Homo sapiens (Human), UniProt P48736); experiment: cell-free PI3K HTRF assay, PI3Kγ; details: ratio of IC50 against PI3Kγ related to PI3Kδ; 10-dose, 3-fold serial dilution starting at 10 μM
Sequence of PI3Kγ (p110γ) (P48736 whole entry): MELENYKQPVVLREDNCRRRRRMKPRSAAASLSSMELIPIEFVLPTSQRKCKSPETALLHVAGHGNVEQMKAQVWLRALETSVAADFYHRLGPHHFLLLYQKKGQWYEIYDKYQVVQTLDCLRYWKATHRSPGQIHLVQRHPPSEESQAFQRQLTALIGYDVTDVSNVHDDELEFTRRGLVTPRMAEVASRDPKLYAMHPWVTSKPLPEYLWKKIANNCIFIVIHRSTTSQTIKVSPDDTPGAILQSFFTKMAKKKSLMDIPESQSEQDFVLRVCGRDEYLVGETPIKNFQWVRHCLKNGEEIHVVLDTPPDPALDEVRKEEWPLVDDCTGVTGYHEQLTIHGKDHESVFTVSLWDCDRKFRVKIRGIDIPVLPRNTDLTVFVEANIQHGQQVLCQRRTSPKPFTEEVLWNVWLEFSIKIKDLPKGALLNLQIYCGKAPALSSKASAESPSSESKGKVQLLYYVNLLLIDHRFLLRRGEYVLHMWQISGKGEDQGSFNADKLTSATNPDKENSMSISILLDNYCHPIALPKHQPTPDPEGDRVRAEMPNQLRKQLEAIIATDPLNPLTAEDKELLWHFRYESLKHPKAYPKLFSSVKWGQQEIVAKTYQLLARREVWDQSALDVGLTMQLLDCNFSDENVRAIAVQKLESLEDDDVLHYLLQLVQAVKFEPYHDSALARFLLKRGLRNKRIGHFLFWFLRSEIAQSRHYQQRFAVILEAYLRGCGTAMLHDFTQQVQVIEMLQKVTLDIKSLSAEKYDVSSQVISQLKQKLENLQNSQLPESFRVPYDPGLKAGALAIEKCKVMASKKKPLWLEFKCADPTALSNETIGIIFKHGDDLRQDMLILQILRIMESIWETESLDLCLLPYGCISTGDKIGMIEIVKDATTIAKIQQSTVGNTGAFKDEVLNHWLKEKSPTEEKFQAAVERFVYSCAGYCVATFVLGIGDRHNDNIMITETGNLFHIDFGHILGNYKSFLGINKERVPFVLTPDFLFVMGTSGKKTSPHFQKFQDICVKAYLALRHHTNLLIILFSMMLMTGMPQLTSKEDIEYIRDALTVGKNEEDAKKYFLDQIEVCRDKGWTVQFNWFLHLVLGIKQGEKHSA
Method: as §1, §2, §3, §4

PI3Kα (p110α/p85α) = PI3Kα (p110α/p85α) (Homo sapiens (Human), UniProt P42336); experiment: cell-free PI3K HTRF assay, PI3Kα; details: ratio of IC50 against PI3Kα related to PI3Kδ; 10-dose, 3-fold serial dilution starting at 10 μM
Sequence of PI3Kα (p110α/p85α) (P42336 whole entry): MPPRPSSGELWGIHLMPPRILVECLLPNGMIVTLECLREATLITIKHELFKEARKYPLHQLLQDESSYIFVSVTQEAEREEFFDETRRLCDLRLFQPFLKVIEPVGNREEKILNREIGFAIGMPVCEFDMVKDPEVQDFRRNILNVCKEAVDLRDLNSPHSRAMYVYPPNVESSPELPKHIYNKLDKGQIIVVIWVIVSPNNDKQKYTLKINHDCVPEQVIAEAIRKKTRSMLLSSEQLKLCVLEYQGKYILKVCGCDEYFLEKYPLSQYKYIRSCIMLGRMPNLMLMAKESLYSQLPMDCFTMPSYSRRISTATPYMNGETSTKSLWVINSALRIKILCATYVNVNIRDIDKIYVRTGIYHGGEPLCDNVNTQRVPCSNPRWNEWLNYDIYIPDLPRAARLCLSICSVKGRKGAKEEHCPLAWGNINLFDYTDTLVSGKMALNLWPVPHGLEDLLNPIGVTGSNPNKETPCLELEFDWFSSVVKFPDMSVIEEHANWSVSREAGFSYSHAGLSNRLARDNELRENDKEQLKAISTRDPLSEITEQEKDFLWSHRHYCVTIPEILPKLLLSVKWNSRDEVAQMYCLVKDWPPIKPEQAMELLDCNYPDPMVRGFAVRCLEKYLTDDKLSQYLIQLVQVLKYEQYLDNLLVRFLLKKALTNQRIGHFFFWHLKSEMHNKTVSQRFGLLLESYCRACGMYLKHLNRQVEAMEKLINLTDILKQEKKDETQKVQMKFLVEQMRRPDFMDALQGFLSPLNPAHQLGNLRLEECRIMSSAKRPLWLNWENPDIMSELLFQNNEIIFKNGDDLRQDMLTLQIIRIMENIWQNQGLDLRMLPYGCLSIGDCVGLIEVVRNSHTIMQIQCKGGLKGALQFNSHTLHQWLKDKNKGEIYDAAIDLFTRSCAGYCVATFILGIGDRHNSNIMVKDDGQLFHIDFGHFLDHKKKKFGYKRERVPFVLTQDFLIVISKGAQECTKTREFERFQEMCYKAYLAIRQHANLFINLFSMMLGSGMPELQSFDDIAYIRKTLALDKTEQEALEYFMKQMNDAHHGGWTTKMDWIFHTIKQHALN
Sequence of PI3Kα (p110α/p85α) (P27986 whole entry partner): as the sequence (P27986 whole entry partner) above
Method: as §1, §2, §3, §4

Sequence of PI3Kδ (p110δ/p85α) (O00329 whole entry): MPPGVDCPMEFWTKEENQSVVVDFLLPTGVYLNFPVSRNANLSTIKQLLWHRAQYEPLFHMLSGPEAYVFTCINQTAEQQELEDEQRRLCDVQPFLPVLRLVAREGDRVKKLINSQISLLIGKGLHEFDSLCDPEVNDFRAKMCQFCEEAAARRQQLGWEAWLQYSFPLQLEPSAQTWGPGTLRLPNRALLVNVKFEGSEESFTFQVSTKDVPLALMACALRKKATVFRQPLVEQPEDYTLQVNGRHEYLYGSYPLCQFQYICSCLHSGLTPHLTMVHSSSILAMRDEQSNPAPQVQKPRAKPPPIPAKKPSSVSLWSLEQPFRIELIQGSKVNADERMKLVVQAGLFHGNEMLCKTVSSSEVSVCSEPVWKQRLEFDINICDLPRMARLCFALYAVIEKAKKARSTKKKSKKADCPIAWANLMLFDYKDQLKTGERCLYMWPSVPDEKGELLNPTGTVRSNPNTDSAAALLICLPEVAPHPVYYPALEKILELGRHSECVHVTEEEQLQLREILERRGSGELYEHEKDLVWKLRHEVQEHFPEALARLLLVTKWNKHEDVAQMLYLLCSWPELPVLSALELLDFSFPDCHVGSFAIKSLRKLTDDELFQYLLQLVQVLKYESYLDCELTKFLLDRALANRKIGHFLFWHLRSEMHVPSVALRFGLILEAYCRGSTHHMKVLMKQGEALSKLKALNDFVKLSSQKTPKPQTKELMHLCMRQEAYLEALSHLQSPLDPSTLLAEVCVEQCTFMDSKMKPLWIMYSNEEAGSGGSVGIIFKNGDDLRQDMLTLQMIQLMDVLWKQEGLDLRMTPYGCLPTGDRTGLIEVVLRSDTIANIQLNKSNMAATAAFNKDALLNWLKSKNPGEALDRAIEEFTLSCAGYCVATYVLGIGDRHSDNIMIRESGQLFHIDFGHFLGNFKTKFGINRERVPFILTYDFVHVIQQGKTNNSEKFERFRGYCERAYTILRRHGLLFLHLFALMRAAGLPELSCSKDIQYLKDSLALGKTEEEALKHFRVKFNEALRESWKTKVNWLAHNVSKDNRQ
Sequence of PI3Kδ (p110δ/p85α) (P27986 whole entry partner): as the sequence (P27986 whole entry partner) above

Row | IC50 (PI3Kδ (p110δ/p85α)) [nM] | Ratio (β/δ) (PI3Kβ (p110β/p85α)) | Ratio (γ/δ) (PI3Kγ (p110γ)) | Ratio (α/δ) (PI3Kα (p110α/p85α)) | potency or inhibition against PI3Kδ (in words) (PI3Kδ (p110δ/p85α)) | Structure (SMILES)
1 | 55 | >181 | 103 | – | – | N#Cc1c(N)ncnc1N1CC=CCC1c1cc2ccc(F)cc2nc1-c1ccccc1 (centres unmarked) [Compound 42]
2 | 14 | 297 | 5.1 | >694 | – | COc1ccccc1-c1nc2cc(F)ccc2cc1C1CCCN1c1ncnc2[nH]cnc12 (centres unmarked) [Compound 25]
3 | 18 | 264 | 5.6 | 556 | – | Cc1cccc2cc([C@@H]3CCCN3c3ncnc4[nH]cnc34)c(-c3ccccc3)nc12 [Compound 63]
4 | 12.8 | 520 | 53 | >781 | – | Fc1ccc2cc([C@@H]3CCCN3c3ncnc4[nH]cnc34)c(-c3ccccn3)nc2c1 [Compound 62]
5 | 6.2 | 297 | 152 | – | – | N#Cc1c(N)ncnc1N1CC=CCC1c1cc2ccc(F)cc2nc1N1CCOCC1 (centres unmarked) [Compound 44]
6 | 13 | 519 | 53 | >781 | – | Fc1ccc2cc(C3CCCN3c3ncnc4[nH]cnc34)c(-c3ccccn3)nc2c1 (centres unmarked) [Compound 10, 3-(1-(9H-purin-6-yl)pyrrolidin-2-yl)-7-fluoro-2-(pyridin-2-yl)quinoline]
7 | < 0.05 | >1120 | ~10 | >1801 | – | Cc1cccc2cc([C@@H]3CCCN3c3nc(N)nc(N)c3C#N)c(-c3ccccc3)nc12 [Compound 54, (S)-2,4-diamino-6-(2-(8-methyl-2-phenylquinolin-3-yl)pyrrolidin-1-yl)pyrimidine-5-carbonitrile]
8 | 0.9 | 1714 | 1.1 | 5958 | – | Nc1nc(N2CCCC2c2cc3ccc(F)cc3nc2N2CCCCC2)c2nc[nH]c2n1 (centres unmarked) [Compound 17]
9 | 16 | 393 | 22 | >613 | – | Fc1ccc2cc(C3CCCN3c3ncnc4[nH]cnc34)c(-c3ccccc3F)nc2c1 (centres unmarked) [Compound 24]
10 | 27 | 267 | 39 | – | – | Fc1ccc2cc(C3CCCN3c3ncnc4[nH]cnc34)c(-c3cccnc3)nc2c1 (centres unmarked) [Compound 1, 3-(1-(9H-purin-6-yl)pyrrolidin-2-yl)-7-fluoro-2-(pyridin-3-yl)quinoline]
11 | 62 | 11 | 2.2 | 138 | – | N#Cc1c(N)ncnc1N1CCCC1c1cc2ccc(F)cc2nc1-c1ccncc1 (centres unmarked) [Compound 15]
12 | 6.8 | 169 | 39 | 689 | – | Fc1ccc2cc(C3CC=CCN3c3ncnc4[nH]cnc34)c(N3CCOCC3)nc2c1 (centres unmarked) [Compound 43]
13 | > 1000 | – | – | – | – | Nc1cc(N2CCCC2c2cc3ccc(F)cc3nc2-c2ccccc2)nc(N)n1 (centres unmarked) [Compound 28]
14 | 0.1 | 14712 | 955 | >100000 | – | N#Cc1c(N)ncnc1N1CCCC1c1cc2ccc(F)cc2nc1N1CCCCC1 (centres unmarked) [Compound 18]
15 | < 0.05 | >789 | >188 | >1738 | – | Cc1cccc2cc([C@@H]3CCCN3c3ncnc(N)c3C#N)c(N3CCOCC3)nc12 [Compound 65]
16 | < 0.05 | >111 | >31 | >4154 | – | N#Cc1c(N)ncnc1N1CCC[C@H]1c1cc2cccc(Cl)c2nc1N1CCOCC1 [Compound 69]
17 | < 0.05 | >2185 | >2.3 | >12756 | – | N#Cc1c(N)nc(N)nc1N1CCCC1c1cc2ccc(F)cc2nc1-c1ccccc1 (centres unmarked) [Compound 27]

Row | IC50 (PI3Kδ (p110δ/p85α)) [nM] | Ratio (β/δ) (PI3Kβ (p110β/p85α)) | Ratio (γ/δ) (PI3Kγ (p110γ)) | Ratio (α/δ) (PI3Kα (p110α/p85α)) | potency or inhibition against PI3Kδ (in words) (PI3Kδ (p110δ/p85α)) | Structure (SMILES)
18 | 19 | 190 | 18.8 | 528 | – | Fc1ccc2cc(C3CCCN3c3ncnc4[nH]cnc34)c(N3CCOCC3)nc2c1 (centres unmarked) [Compound 20]
19 | 4.8 | 631 | 85 | 962 | – | COc1cccc(-c2nc3cc(F)ccc3cc2C2CCCN2c2ncnc(N)c2C#N)c1 (centres unmarked) [Compound 30]
20 | 521 | 4.2 | 3.3 | >19 | – | Fc1ccc2cc(C3CCCN3c3ncnc4[nH]cnc34)c(-c3ccncc3)nc2c1 (centres unmarked) [Compound 14]
21 | > 1000 | – | – | – | week potency or inhibition | Cn1c(=O)n(C)c2c(N3CCCC3c3cc4ccc(F)cc4nc3-c3ccccn3)ncnc21 (centres unmarked) [Compound 13]
22 | 1.8 | 250 | 24 | 493 | – | Clc1cccc2cc([C@@H]3CCCN3c3ncnc4[nH]cnc34)c(N3CCOCC3)nc12 [Compound 66]
23 | > 1000 | – | – | – | week potency or inhibition | Fc1ccc2cc(C3CCCCCN3c3ncnc4[nH]cnc34)c(-c3ccccc3)nc2c1 (centres unmarked) [Compound 45, 3-(1-(9H-purin-6-yl)azepan-2-yl)-7-fluoro-2-phenylquinoline]
24 | 7.1 | 537 | 106 | 529 | – | Fc1ccc2cc(C3CCCCN3c3ncnc4[nH]cnc34)c(N3CCOCC3)nc2c1 (centres unmarked) [Compound 38, 4-(3-(1-(9H-purin-6-yl)piperidin-2-yl)-7-fluoroquinolin-2-yl)morpholine]
25 | 207 | 39.7 | 12 | 483 | – | Fc1ccc2cc(C3CCCN3c3ncnc4[nH]cnc34)c(-c3cccc(OC(F)(F)F)c3)nc2c1 (centres unmarked) [Compound 26]
26 | 1.6 | 344 | 111 | 1000 | – | N#Cc1c(N)ncnc1N1CCCC1c1cc2ccc(F)cc2nc1N1CCOCC1 (centres unmarked) [Compound 7, 4-amino-6-(2-(7-fluoro-2-morpholinoquinolin-3-yl)pyrrolidin-1-yl)pyrimidine-5-carbonitrile]
27 | 2.2 | 1153 | 145 | 3360 | – | Fc1ccc2cc(C3CCCN3c3ncnc4[nH]cnc34)c(N3CCCCC3)nc2c1 (centres unmarked) [Compound 16]
28 | 1.6 | 317 | 48 | 748 | – | Cc1cccc2cc([C@@H]3CCCN3c3ncnc4[nH]cnc34)c(N3CCOCC3)nc12 [Compound 64]
29 | 240 | – | – | – | – | Fc1ccc2cc(C3CCCCN3c3ncnc4[nH]cnc34)c(-c3ccccc3)nc2c1 (centres unmarked) [Compound 41]
30 | 11 | 396 | 50 | >926 | – | COc1cccc(-c2nc3cc(F)ccc3cc2C2CCCN2c2ncnc3[nH]cnc23)c1 (centres unmarked) [Compound 23]
31 | 0.5 | 8946 | 139 | 16451 | – | Fc1cccc(-c2nc3cc(F)ccc3cc2C2CCCN2c2ncnc3[nH]cnc23)c1 (centres unmarked) [Compound 22]
32 | 103 | >97 | 16 | – | – | Fc1ccc2cc(C3CC=CCN3c3ncnc4[nH]cnc34)c(-c3ccccc3)nc2c1 (centres unmarked) [Compound 31, 3-(1-(9H-purin-6-yl)-1,2,3,6-tetrahydropyridin-2-yl)-7-fluoro-2-phenylquinoline]
33 | 1.7 | 478 | 52.4 | 2170 | – | N#Cc1c(N)ncnc1N1CCCC1c1cc2ccc(F)cc2nc1-c1ccccc1 (centres unmarked) [Compound 29]
34 | < 0.05 | >106 | ~10 | >545 | – | N#Cc1c(N)nc(N)nc1N1CCC[C@H]1c1cc2cccc(Cl)c2nc1-c1ccccc1 [Compound 68]
